pIC50: −log10 of the molar value.
Key:
CDK1/Cyclin B1 = CDK1/Cyclin B1 (Homo sapiens, UniProt P06493); assay: CDK1/Cyclin B1 Biochemical Assay (TR-FRET), 0.015 mM ATP; conditions: 0.15 μM Rb (Ser780)-biotin substrate, pH7.0, 60 min preincubation, 120 min reaction, room temperature
Protocol: (§1) CDK2/Cyclin E1 and CDK1/Cyclin B1 Biochemical Assays
(§2) Compounds disclosed herein were tested for inhibition of CDK2/Cyclin E1 or CDK1/Cyclin B1 kinase in an assay based on the time-resolved fluorescence-resonance energy transfer (TR-FRET) methodology. The assay was carried out in 384-well low volume black plates in a reaction mixture containing CDK2/Cyclin E1 or CDK1/Cyclin B1, 0.060 mM ATP for CDK2/Cyclin E1 or 0.015 mM ATP for CDK1/Cyclin B1, 0.15 μM Rb (Ser780)-biotin substrate and 0-10 μM compound in buffer containing 50 mM HEPES pH7.0, 0.02% NaN3, 0.01% BSA, 0.1 mM Orthovanadate, 50 mM MgCl2, 1 mM DTT and 0.005% Tween-20. The kinase was incubated with compound for 60 minutes at room temperature and the reaction was initiated by the addition of ATP and Rb (Ser780)-biotin substrate. After reaction at room temperature for 120 minutes, an equal volume of stop/detection solution was added according to the manufacture's instruction (Cisbio Bioassays). The stop/detection solution contained Streptavidin-XL665 and Anti-pRb (Ser780) mAb-Eu Cryptate in Detection buffer (Cisbio Bioassays). Plates were incubated at room temperature for 60 minutes, and the TR-FRET signals (ex337 nm, em665 nm/620 nm) were recorded on a PHERAstar FSX plate reader (BMG Labtech). The inhibition percentage of CDK2/Cyclin E1 or CDK1/Cyclin B1 kinase activity in presence of increasing concentrations of compounds was calculated based on the ratio of fluorescence at 665 nm to that at 620 nm. The IC50 for each compound was derived from fitting the data to the four-parameter logistic equation by Dotmatics.

CDK2/Cyclin E1 = CDK2/Cyclin E1 (Homo sapiens, UniProt P24941); assay: CDK2/Cyclin E1 Biochemical Assay (TR-FRET), 0.060 mM ATP; conditions: 0.15 μM Rb (Ser780)-biotin substrate, pH7.0, 60 min preincubation, 120 min reaction, room temperature
Protocol: as §1, §2

CDK1/Cyclin B1, sequence (P06493 whole entry): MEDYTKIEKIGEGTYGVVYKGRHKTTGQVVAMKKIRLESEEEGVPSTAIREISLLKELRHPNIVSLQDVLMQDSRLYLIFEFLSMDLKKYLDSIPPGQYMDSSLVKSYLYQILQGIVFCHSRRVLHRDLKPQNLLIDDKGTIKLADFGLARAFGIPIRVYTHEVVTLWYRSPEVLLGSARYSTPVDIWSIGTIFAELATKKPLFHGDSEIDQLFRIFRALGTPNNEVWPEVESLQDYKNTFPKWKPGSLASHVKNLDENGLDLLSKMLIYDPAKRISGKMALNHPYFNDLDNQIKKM
CDK1/Cyclin B1, sequence (P14635 whole entry partner): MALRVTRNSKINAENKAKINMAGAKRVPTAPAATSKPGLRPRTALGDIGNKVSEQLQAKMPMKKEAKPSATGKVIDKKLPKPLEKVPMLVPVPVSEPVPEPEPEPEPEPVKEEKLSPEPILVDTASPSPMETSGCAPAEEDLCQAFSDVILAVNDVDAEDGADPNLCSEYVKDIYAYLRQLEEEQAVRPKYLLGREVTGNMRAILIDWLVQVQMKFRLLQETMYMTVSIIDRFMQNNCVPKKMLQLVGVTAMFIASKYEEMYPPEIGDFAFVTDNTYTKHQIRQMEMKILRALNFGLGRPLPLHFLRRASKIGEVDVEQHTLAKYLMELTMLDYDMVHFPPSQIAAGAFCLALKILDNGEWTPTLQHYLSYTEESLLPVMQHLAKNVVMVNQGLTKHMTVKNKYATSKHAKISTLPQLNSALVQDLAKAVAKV

Row | Compound | pIC50 (CDK1/Cyclin B1) | pIC50 (CDK2/Cyclin E1)
1 | CC1(NC(=O)O[C@H]2CC[C@@H](c3cc(Nc4ccc5c(c4F)CS(=O)(=O)N5)n[nH]3)C2)CC1 (single isomer, unassigned) [Example 388b] | 7.68 | 8.89
2 | CC(C)NC(=O)O[C@H]1CC[C@@H](c2cc(Nc3ccc4c(c3F)CN(C3CCN(C)C(=O)C3)S4(=O)=O)n[nH]2)C1 (relative stereo) [Example 100, cis-3-(3-((4-fluoro-2-(1-methyl-2-oxopiperidin-4-yl)-1,1-dioxido-2,3-dihydrobenzo[d]isothiazol-5-yl)amino)-1H-pyrazol-5-yl)cyclopentyl isopropylcarbamate] | 6.63 | 8.28
3 | CC(C)NC(=O)O[C@H]1CC[C@@H](c2cc(Nc3ccc4c(c3)CS(=O)(=O)N4C3CC3)n[nH]2)C1 (relative stereo) [Example 203, cis-3-(3-((1-cyclopropyl-2,2-dioxido-1,3-dihydrobenzo[c]isothiazol-5-yl)amino)-1H-pyrazol-5-yl)cyclopentyl isopropylcarbamate] | 7.39 | 8.27
4 | O=C(NC1(CO)CCC1)O[C@H]1CC[C@@H](c2cc(Nc3ccc4c(c3)CS(=O)(=O)N4)n[nH]2)C1 (relative stereo) [Example 417, cis-3-(3-((2,2-dioxido-1,3-dihydrobenzo[c]isothiazol-5-yl)amino)-1H-pyrazol-5-yl)cyclopentyl(1-(hydroxymethyl)cyclobutyl)carbamate] | 7.74 | 8.52
5 | C[C@H]1[C@H](O)CN1C(=O)O[C@H]1CC[C@@H](c2cc(Nc3ccc4c(c3F)CN(C)S4(=O)=O)n[nH]2)C1 (relative stereo) [Example 170, cis-3-(3-((4-fluoro-2-methyl-1,1-dioxido-2,3-dihydrobenzo[d]isothiazol-5-yl)amino)-1H-pyrazol-5-yl)cyclopentyl(2S,3R)-3-hydroxy-2-methylazetidine-1-carboxylate] | 6.39 | 7.64
6 | CC(C)NC(=O)O[C@H]1CC[C@@H](c2cc(Nc3cc(F)c4c(c3)CS(=O)(=O)N4C3CC3)n[nH]2)C1 (relative stereo) [Example 288, cis-3-(3-((1-cyclopropyl-7-fluoro-2,2-dioxido-1,3-dihydrobenzo[c]isothiazol-5-yl)amino)-1H-pyrazol-5-yl)cyclopentyl isopropylcarbamate] | 6.82 | 8.26
7 | COCC(C)NC(=O)O[C@H]1CC[C@@H](c2cc(Nc3ccc4c(c3)CS(=O)(=O)N4C)n[nH]2)C1 (relative stereo) [Example 226, cis-3-(3-((1-methyl-2,2-dioxido-1,3-dihydrobenzo[c]isothiazol-5-yl)amino)-1H-pyrazol-5-yl)cyclopentyl(1-methoxypropan-2-yl)carbamate] | 7.11 | 8.70
8 | CC(C)NC(=O)O[C@H]1CC[C@@H](c2cc(Nc3ccc4c(c3F)CS(=O)(=O)N4CCO)n[nH]2)C1 (single isomer, unassigned) [Example 271a, cis-3-(3-((4-fluoro-1-(2-hydroxyethyl)-2,2-dioxido-1,3-dihydrobenzo[c]isothiazol-5-yl)amino)-1H-pyrazol-5-yl)cyclopentyl isopropylcarbamate] | 6.76 | 8.49
9 | [2H]C([2H])([2H])N1c2c(F)cc(Nc3cc([C@@H]4CC[C@H](OC(=O)NC5(C)CC5)C4)[nH]n3)cc2CS1(=O)=O (single isomer, unassigned) [Example 291a, cis-3-(3-((7-fluoro-1-(methyl-d3)-2,2-dioxido-1,3-dihydrobenzo[c]isothiazol-5-yl)amino)-1H-pyrazol-5-yl)cyclopentyl(1-methylcyclopropyl)carbamate] | 7.12 | 8.70
10 | CC(=O)N1CC(CN2Cc3c(ccc(Nc4cc([C@@H]5CC[C@H](OC(=O)NC(C)C)C5)[nH]n4)c3F)S2(=O)=O)C1 (relative stereo) [Example 107, cis-3-(3-((2-((1-acetylazetidin-3-yl)methyl)-4-fluoro-1,1-dioxido-2,3-dihydrobenzo[d]isothiazol-5-yl)amino)-1H-pyrazol-5-yl)cyclopentyl isopropylcarbamate] | 6.27 | 8.02
11 | CC(C)NC(=O)O[C@H]1CC[C@@H](c2cc(Nc3ccc4c(c3F)CS(=O)(=O)N4C3CC3)n[nH]2)C1 (single isomer, unassigned) [Example 275a, cis-3-(3-((1-cyclopropyl-4-fluoro-2,2-dioxido-1,3-dihydrobenzo[c]isothiazol-5-yl)amino)-1H-pyrazol-5-yl)cyclopentyl isopropylcarbamate] | 6.40 | 8.08
12 | CCCNC(=O)O[C@H]1CC[C@@H](c2cc(Nc3ccc4c(c3F)CS(=O)(=O)N4CCO)n[nH]2)C1 (single isomer, unassigned) [Example 272a, cis-3-(3-((4-fluoro-1-(2-hydroxyethyl)-2,2-dioxido-1,3-dihydrobenzo[c]isothiazol-5-yl)amino)-1H-pyrazol-5-yl)cyclopentyl propylcarbamate] | 6.84 | 7.81
13 | CC(C)NC(=O)O[C@H]1CC[C@@H](c2cc(Nc3ccc4c(c3F)S(=O)(=O)NC4(C)C)n[nH]2)C1 (relative stereo) [Example 13, cis-3-(3-((7-fluoro-3,3-dimethyl-1,1-dioxido-2,3-dihydrobenzo[d]isothiazol-6-yl)amino)-1H-pyrazol-5-yl)cyclopentyl isopropylcarbamate] | 6.25 | 7.68
14 | CCCNC(=O)O[C@H]1CC[C@@H](c2cc(Nc3cc4c(cc3F)S(=O)(=O)NC4)n[nH]2)C1 (single isomer, unassigned) [Example 42a, cis-3-(3-((6-fluoro-1,1-dioxido-2,3-dihydrobenzo[d]isothiazol-5-yl)amino)-1H-pyrazol-5-yl)cyclopentyl propylcarbamate] | 6.05 | 7.85
15 | O=C(O[C@H]1CC[C@@H](c2cc(Nc3ccc4c(c3)CNS4(=O)=O)n[nH]2)C1)N1CCCC1 (relative stereo) [Example 174, cis-3-(3-((1,1-dioxido-2,3-dihydrobenzo[d]isothiazol-5-yl)amino)-1H-pyrazol-5-yl)cyclopentyl pyrrolidine-1-carboxylate] | 6.87 | 8.19
16 | CC(C)NC(=O)O[C@H]1CC[C@@H](c2cc(Nc3ccc4c(c3F)S(=O)(=O)N(C(C)C)C4)n[nH]2)C1 (relative stereo) [Example 193, cis-3-(3-((7-fluoro-2-isopropyl-1,1-dioxido-2,3-dihydrobenzo[d]isothiazol-6-yl)amino)-1H-pyrazol-5-yl)cyclopentyl isopropylcarbamate] | 6.44 | 7.80
17 | CC(C)NC(=O)O[C@H]1CC[C@@H](c2cc(Nc3ccc4c(c3F)CN(Cc3ccccc3)S4(=O)=O)n[nH]2)C1 (relative stereo) [Example 75, cis-3-(3-((2-benzyl-4-fluoro-1,1-dioxido-2,3-dihydrobenzo[d]isothiazol-5-yl)amino)-1H-pyrazol-5-yl)cyclopentyl isopropylcarbamate] | 5.97 | 7.80
18 | CC(C)NC(=O)O[C@H]1CC[C@@H](c2cc(Nc3ccc4c(c3)C(F)(F)S(=O)(=O)N4C)n[nH]2)C1 (relative stereo) [Example 346, cis-3-(3-((3,3-difluoro-1-methyl-2,2-dioxido-1,3-dihydrobenzo[c]isothiazol-5-yl)amino)-1H-pyrazol-5-yl)cyclopentyl isopropylcarbamate] | 6.32 | 7.51
19 | CCCNC(=O)O[C@H]1CC[C@@H](c2cc(Nc3ccc4c(c3F)CN(C)S4(=O)=O)n[nH]2)C1 (single isomer, unassigned) [Example 122a, cis-3-(3-((4-fluoro-2-methyl-1,1-dioxido-2,3-dihydrobenzo[d]isothiazol-5-yl)amino)-1H-pyrazol-5-yl)cyclopentyl propylcarbamate] | 6.34 | 7.92
20 | CC[C@H](C)NC(=O)O[C@H]1CC[C@@H](c2cc(Nc3ccc4c(c3F)C(C)NS4(=O)=O)n[nH]2)C1 (single isomer, unassigned) [Example 54a] | 6.51 | 8.96
21 | CC1(NC(=O)O[C@H]2CC[C@@H](c3cc(Nc4ccc5c(c4)CCS(=O)(=O)N5)n[nH]3)C2)CC1 (single isomer, unassigned) [Example 249a, cis-3-(3-((2,2-dioxido-3,4-dihydro-1H-benzo[c][1,2]thiazin-6-yl)amino)-1H-pyrazol-5-yl)cyclopentyl(1-methylcyclopropyl)carbamate] | 7.51 | 8.96
22 | CC(C)NC(=O)O[C@H]1CC[C@@H](c2cc(Nc3ccc4c(c3)CS(=O)(=O)N4CCO)n[nH]2)C1 (single isomer, unassigned) [Example 219a, cis-3-(3-((1-(2-hydroxyethyl)-2,2-dioxido-1,3-dihydrobenzo[c]isothiazol-5-yl)amino)-1H-pyrazol-5-yl)cyclopentyl isopropylcarbamate] | 7.34 | 8.27
